How the values were obtained:
[1] = system: syncitia formation in co-culture of H 9 III cells (chronically infected) with SUP T1 cells; assay: Inhibition of syncitia (co-culture of H 9 III cells with SUP T1 cells); assay type: cell-based, HIV; settings: for Percentage of inhibition (syncitia), H 9 III cells: H 9 III cells pre-incubated with product one night at 37° C. before co-culture; for Percentage of inhibition (syncitia), Sup Ti cells: Sup Ti cells pre-incubated with product one night at 37° C. before co-culture; for Percentage of inhibition (syncitia), Test no. 1 / Percentage of inhibition (syncitia), Test no. 2: co-culture with product without previous incubation
Procedure: The activity of the sulfate derivative of galactan extracted from Klebsiella was determined by measurement of the inhibition of syncitia [Gruters et al, Nature, Vol. 330, p. 74 to 77, (5 Nov. 1987)] and by determination of the protective activity exercised vis-a-vis certain cell cultures.
A co-culture of H 9 III cells (chronically infected 10^5 cells/ml) with SUP T1 cells (non-infected: 2×10^5 cells/ml) was carried out and there was syncitia formation which was counted with a microscope. Each type of cell was pre-incubated or non-preincubated with the studied product for one night at 37° C. If there was no pre-incubation, the studied product was added to cells at the moment the culture was carried out. When there was inhibition of Syncitia formation in the treated cells relative to the control cells, the studied product was protective. The results obtained are shown hereafter.

HIV virus (MT4 cells) = assay: MT4 / MTT test (inhibition of the infection of MT4 cells); assay type: cell-based; settings: 7 days at 37° C., MTT reading
Procedure: technique: 100 microliter dilutions of the virus in series in a microtitration plate addition of 100 microliters of cellular suspension containing 5×10^4 MT4 cells culture 7 days at 37° C., 5% CO2 addition of MTT (tetrazolium salt viability coloring agent) incubation 4 hours at 37° C. halting the reaction by the addition of a hydrochloric acid solution in isopropane reading of the optical density (OD) at 540 nm (after dissolution of the crystals).
MT4 cells at 10^6 cells/ml were used and dilution to 1/2 took place with or without the studied product at different concentrations. 100 microliters of HIV virus at different dilutions and 100 microliters of pre-treated cell suspension were introduced onto a microtitration plate. Incubation took place at 37° C. for 7 days and the MTT was added and a reading was taken with a spectrophotometer. The percentage inhibition of the infection of MT4 cells was determined and the results are shown hereafter: […]

HIV virus (H9 cells) = assay: H9 test (reverse transcriptase on supernatant and immunofluorescence on cells); assay type: cell-based; settings: D+11; for Reverse Transcriptase % inhibition / Reverse Transcriptase cpm/cm^3 × 10^4: H9 cells supernatant; for Immunofluorescence % fluorescent cells / Immunofluorescence % inhibition: H9 cells
Procedure: H9 cells were used which were treated with polybrene, washed, and taken up in 100 microliters of medium, with or without the studied product at different concentrations. After incubating for 2 hours at 37° C. 100 microliters of HIV virus at 1/10 were added and the mixture was kept for 1 hour at 37° C. and then washed. The cells were taken up in 1 ml of medium with or without the studied product, and distributed into 2 wells, 500 microliters per well and 2×10^5 cells by well. On D+4, 500 microliters of culture medium with or without the studied product were added. On D+8, half of the supernatant was replaced with new medium. On D+11, a quantitative analysis by reverse transcriptase was carried out on the supernatant and an immunofluorescent determination was carried out on the cells. The results are shown hereafter.

Sulfate derivative of the qalactan extracted from Klebsiella [Example 1]
Percentage of inhibition (syncitia), H 9 III cells ([1]; 1 micrograms/cm^3): 17%
Percentage of inhibition (syncitia), Sup Ti cells ([1]; 1 micrograms/cm^3): 23%
Percentage of inhibition (syncitia), Test no. 1 ([1]; 1 micrograms/cm^3): 0%
Percentage of inhibition (syncitia), Test no. 2 ([1]; 1 micrograms/cm^3): 10%
Percentage of inhibition (syncitia), H 9 III cells ([1]; 10 micrograms/cm^3): 23%
Percentage of inhibition (syncitia), Sup Ti cells ([1]; 10 micrograms/cm^3): 27%
Percentage of inhibition (syncitia), Test no. 1 ([1]; 10 micrograms/cm^3): 42%
Percentage of inhibition (syncitia), Test no. 2 ([1]; 10 micrograms/cm^3): 17%
Percentage of inhibition (syncitia), H 9 III cells ([1]; 100 micrograms/cm^3): 100%
Percentage of inhibition (syncitia), Sup Ti cells ([1]; 100 micrograms/cm^3): 100%
Percentage of inhibition (syncitia), Test no. 1 ([1]; 100 micrograms/cm^3): 100%
Percentage of inhibition (syncitia), Test no. 2 ([1]; 100 micrograms/cm^3): 100%
Percentage of inhibition of the infection of MT4 cells (HIV virus (MT4 cells); 1 micrograms/cm^3): 74%
Percentage of inhibition of the infection of MT4 cells (HIV virus (MT4 cells); 10 micrograms/cm^3): 99%
Percentage of inhibition of the infection of MT4 cells (HIV virus (MT4 cells); 100 micrograms/cm^3): 84%
Reverse Transcriptase % inhibition (HIV virus (H9 cells); 1 micrograms/cm^3): 76%
Reverse Transcriptase cpm/cm^3 × 10^4 (HIV virus (H9 cells); 1 micrograms/cm^3): 6.42 cpm/cm^3 × 10^4
Immunofluorescence % fluorescent cells (HIV virus (H9 cells); 1 micrograms/cm^3): 3%
Immunofluorescence % inhibition (HIV virus (H9 cells); 1 micrograms/cm^3): 94%
Reverse Transcriptase % inhibition (HIV virus (H9 cells); 10 micrograms/cm^3): 100%
Reverse Transcriptase cpm/cm^3 × 10^4 (HIV virus (H9 cells); 10 micrograms/cm^3): 1.16 cpm/cm^3 × 10^4
Immunofluorescence % fluorescent cells (HIV virus (H9 cells); 10 micrograms/cm^3): 0%
Immunofluorescence % inhibition (HIV virus (H9 cells); 10 micrograms/cm^3): 100%
Reverse Transcriptase % inhibition (HIV virus (H9 cells); 100 micrograms/cm^3): 100%
Reverse Transcriptase cpm/cm^3 × 10^4 (HIV virus (H9 cells); 100 micrograms/cm^3): 1.12 cpm/cm^3 × 10^4
Immunofluorescence % fluorescent cells (HIV virus (H9 cells); 100 micrograms/cm^3): 0%
Immunofluorescence % inhibition (HIV virus (H9 cells); 100 micrograms/cm^3): 100%

Source: US5182378A, “Sulfate derivatives of galactan extracted from Klebsiella” (Roussel Uclaf, priority 1989, dated 1993)
